# Laboratory results from patent US6605115B1, “Method and composition for inhibiting cardiovascular cell proliferation” (Board of Trustees of the Leland Stanford Junior University, priority 1999, dated 2003).
# Assays:
# cytokine-stimulated VSMC = assay: Effect of arginine oligomers on NO production in cytokine-stimulated VSMC (NO2, Griess); format: cell-based, rat
# Description: Rat VSMCs were prepared from the media layer of thoracic aorta of Sprague-Dawley rats by the explant method. The cells were cultured in Dulbecco's modified Eagle's medium (DMEM, Gibco BRL, Gaithersburg, Md.) containing 10% fetal calf serum, 100 U/ml penicillin and 100 μg/ml streptomycin at 37° C. under a humidified atmosphere containing 5% CO2. After subconfluent growth, cells were cultured with MEM Select Amine Kit (Gibco BRL, Gaithersburg, Md.) to be treated by specific concentrations of extracellular free L-arginine. Experiments were performed using cultured cells at passage levels of 5-10.
# Extracellular NO production was measured as its stable oxidative metabolite, nitrite (NO2). At the end of each incubation, samples of the medium (80 μl) were collected, and NO2 measurement was performed using the Griess reaction facilitated by a commercial calorimetric assay (Cayman Chemical, Ann Arbor, Mich.). Values of NO2 production were corrected with relative cell count assessed by a cell proliferation kit II (XTT) (Boeheringer Mannheim, Germany).
# Subconfluent cells were pre-incubated with medium containing 100 μM arginine for 24 hours. The cells were then transiently pretreated with each arginine polymer for 30 minutes. After translocation, the cells were incubated with a mixture of IFN-γ (100 U/ml) and LPS (100 μg/ml) in medium containing 100 μM L-arginine for another 24 hours. In some experiments, L-NMMA (1 mM), a nitric oxide synthase inhibitor, was added to the medium.
# vein graft segments = assay: Ex vivo NOx production from vein graft harvested 3 days after surgery; format: in vivo, New Zealand white rabbits; details: A23187, 10.0 μM
# Description: Vein grafts were harvested 3 days after surgery, as described in Example 7. Vein graft segments were incubated in 1 me of Hanks' buffered saline solution (HBSS, Irvine Scientific) containing Ca^2+ (1.0 mM) and L-arginine (100 μM, Sigma) at 37° C. for 2 hours. NOx (nitrate and nitrite) production was measured either in the absence (basal) or presence (stimulated) of calcium ionophore (A23187, 10.0 μM, Sigma). Samples of the medium (80 μL) were collected, and NOx measurement was performed using the Griess reaction facilitated by a commercial calorimetric assay (Cayman Chemical).
# [1] = tested on: coronary vessels of transplanted PVG rat donor hearts; assay: Heart transplant study (graft coronary artery disease, GCAD); format: in vivo; details: for % affected vessels / % luminal narrowing / I/M ratio: intracoronary 50 uM, 30 minutes
# Description: In this study, PVG rat donor hearts (n=48) were transplanted heterotopically into the abdomen of ACI recipients. Donor hearts received either intracoronary PBS or intracoronary 50 uM (L)-arginine polymer (L-R5 or L-R9) for 30 minutes. (D-arginine polymers were not included in this study.) Each of these groups was further divided into 60 and 90 day study animals (n=6 each). Percent luminal narrowing, intima to media ratio (I/M), and percent affected vessels were determined as described in Example 11, below. Transfection efficiency was determined by infusing biotinylated R5 and R9, as in the preceding studies, and calculating the percentage of biotin positive nuclei divided by total number of nuclei.
# PVG rat donor hearts (n=48) were transplanted heterotopically into the abdomen of ACI recipients. Donor hearts received either intracoronary PBS or intracoronary 50 uM (L)-arginine polymer (L-R5 or L-R9) for 30 minutes. Each group was further divided into 60 and 90 day study animals (n=6 each). Tissue cross sections (5μ) were stained with EVG (Elastica-van Gieson) preparation, and vessels were scored using computerized morphometry for analysis of % luminal narrowing, intima to media ratio (I/M), and % affected vessels. Transfection efficiency was determined by infusing biotinylated R5 and R9, as in preceding examples, and calculating the percentage of biotin positive nuclei divided by total number of nuclei. Results are described in Section IV C, above.
# [2] = tested on: rat vascular smooth muscle cells (VSMC); assay: Translocation of biotin-labeled peptides into cultured VSMC (HRP-streptavidin/DAB staining); format: cell-based; details: for internalized biotin signal (staining): 30 minutes
# Description: In the studies described below, transmembrane transport and cellular uptake of oligomers was assessed by incubating cells or tissue with biotin-oligomer conjugates, followed by treatment with horseradish peroxidase (HRP)-conjugated streptavidin and subsequent incubation with DAB (3,3′-diaminobenzidine), a substrate of the enzyme which produces a highly colored product.
# Cultured VSMC (vascular smooth muscle cells) were treated, as described in Example 2, with biotinylated oligomers of arginine or lysine. After incubation, the cells were treated with HRP-streptavidin conjugate, then with DAB. Staining by the oxidation product was observed using light microscopy.
# Rat VSMCs were grown on glass microscope slide chambers (Nunc Inc., Naperville, Ill.). Subconfluent cells were washed and placed in serum-free medium. After 2 hours, cells were treated with bR7, or bK7 (0.1 μM, 1.0 μM, 10 μM), at 37° C. for 30 minutes. To assess the role of endocytosis in cellular uptake of the peptides, experiments were performed at 4° C., and also in the presence of sodium azide (1.0%) for 30 minutes prior to exposure to the peptides. To assess the involvement of the basic amino acid transport system y+ in the translocation of peptides into the cell, experiments were performed in the presence of excess extracellular L-arginine (10 mM).
# After 30 minutes of incubation with the peptides, cells were washed 3 times with phosphate-buffered saline (PBS), fixed for 5 minutes at −20° C. in ethanol/acetone, washed 3 times in PBS, incubated for 30 minutes with a peroxidase suppressor (ImmunoPure, Pierce, Rockford, Ill.) to block endogenous peroxidase activity and nonspecific binding, washed, and then incubated with 5 μg/ml of horseradish peroxidase (HRP) conjugated strepavidin (Pierce, Rockford, Ill.) for 30 minutes. Cells were washed 3 times with PBS, and a substrate of HRP, DAB (Sigma, St. Louis, […].), was added to the cells. The reaction was terminated by washing in distilled water after a 60-second incubation with DAB. Cell preparations were observed by conventional light microscopy (see FIG. 1). This experimental protocol was repeated 3 times.
# [3] = tested on: human umbilical vein endothelial cells (ECV304); assay: In vitro translocation of biotin-labeled peptides into endothelial cells; format: cell-based; details: endothelial cells
# Description: Spontaneously transformed human umbilical vein endothelial cells (ECV304, ATCC) were cultured in medium M199 (Irvine Scientific) containing 10% fetal bovine serum (FBS), 100 IU/ml penicillin and 100 μg/ml of streptomycin (Gibco BRL). Confluent cells were washed and placed in serum-free medium. After 2 hours, the cells were incubated in presence of biotin labeled peptides, as bL-R7, or bD-R7, or bL-K7 (0.1, 1.0, and 10.0 μM). After 30 minutes of incubation, cells were washed 3 times with phosphate-buffered saline (PBS), fixed in ethanol/acetone; washed in PBS; incubated for 30 minutes with peroxidase suppressor (ImmunoPure, Pierce) to block endogenous peroxidase activity; and then incubated with 5 μg/ml of horse-radish peroxidase (HRP) conjugated strepavidin (Pierce) for 30 minutes. Substrate of HRP, diaminobenzidine (DAB, Sigma), was added to the cells. The reaction was terminated by washing in distilled water after a 60-second incubation. This experiment was repeated 3 times.
# [4] = tested on: rabbit carotid artery segment; assay: Ex vivo translocation study, carotid artery segments; parameters: species or system New Zealand white rabbits
# Description: After incubation with biotin labeled oligomer, vascular segments were washed, then frozen in OCT compound (Miles Scientific). Frozen sections, 5 μm thick, were fixed with acetone for 10 minutes. Internalized biotin was detected using the staining procedure described in Example 2. Methyl green was used for nuclear counter staining.
# To quantify the efficiency of nuclear translocation, the numbers of both DAB positive nuclei and total nuclei were counted in the intima and media separately at ×400 magnification with a video image analysis system (Automatrix). The frequency of nuclear translocation was expressed as the percent staining of nuclei, defined as the ratio of the number of DAB positive nuclei to that of all nuclei, in the intima and media. Each protocol was repeated 4 times.
# Both carotid artery and jugular vein segments of male New Zealand white rabbits were used. To test the dose dependence of R7 translocation, vascular segments were incubated for 30 minutes with either bL-R7 or bD-R7 solution (0.1, 1.0, and 10.0 μM) in serum-free Dulbecco's minimal essential medium (DMEM) (Gibco BRL). To test the incubation time dependence, vascular segments were incubated with 10.0 μM of biotin labeled R7 solution for 10 seconds, 60 seconds, 5 minutes, 10 minutes, and 30 minutes. Furthermore, to determine the ability of R7 to penetrate through the vessel wall, vascular segments were ligated one end, R7 containing medium was instilled, and the other end ligated so as to expose only the luminal surface to R7. The luminal surface of the vascular segment was exposed to bL-R7 or bD-R7 (10.0 μM) for 30 minutes. To test the temperature dependence of translocation, vascular segments were incubated with 10.0 μM of biotin labeled R7 solutions at 37° C. or 4° C. To determine the disappearance time course of translocated R7, vascular segments were incubated with biotin labeled R7 solutions (10.0 μM) at 37° C. for 30 minutes, and then reincubated in DMEM with 10% FBS up to 5 days. Vascular segments were harvested at 1, 2 and 5 days after initial incubation.
compound,measurement,setting,value
"CNC(=N)NCCC[C@H](N)C(=O)O [L-NMMA, N^G-monomethyl L-arginine, reference compound]",enhancement of NO production in R7 treated cells after NO synthase inhibitor,cytokine-stimulated VSMC; L-NMMA (1 mM) added to R7 treated cells,abolished
"CNc1ccc2oc(C[C@H]3O[C@@]4(CC[C@H]3C)O[C@H]([C@H](C)C(=O)c3ccc[nH]3)[C@H](C)C[C@H]4C)nc2c1C(=O)O [Calcium ionophore, reference compound]",NOx production by the vein grafts on calcium ionophore stimulation,vein graft segments,did not significantly affect the NOx production
nona-L-arginine [R9],NO production,"cytokine-stimulated VSMC; pretreatment 30 minutes, then IFN-γ and LPS, 100 μM extracellular L-arginine",dose-dependent increases in NO production at doses as low as 10 μM
same,degree of enhancement of NO production,"cytokine-stimulated VSMC; pretreatment 30 minutes, vs. vehicle treated cytokine-stimulated cells",44±5.2%
same,GCAD compared to PBS controls,[1]; 60 and 90 days,significant reduction in GCAD
same,% affected vessels,[1]; 60 days,6.5 ± 6.9%
same,% luminal narrowing,[1]; 60 days,3.2 ± 3.8%
same,I/M ratio,[1]; 60 days,.03 ± .04
same,% affected vessels,[1]; 90 days,4.9 ± 7.1%
same,% luminal narrowing,[1]; 90 days,1.6 ± 3.3%
same,I/M ratio,[1]; 90 days,.01 ± .02
same,transfection of coronary vessels,[1]; biotinylated oligomer infused,marked transfection of the intima and media of coronary vessels
biotin-labeled heptaarginine [bR7],internalized biotin signal (staining),[2]; 0.1 μM,internalized biotin was observed in all VSMCs
same,internalized biotin signal (staining),"[2]; 10 μM, 37° C.","very intense staining, not only in the cytoplasm, but also in the nucleus of all VSMC"
same,efficacy of translocation at 4° C.,[2]; 4° C.,no apparent reduction was observed in the efficacy of bR7 translocation
same,cytoplasmic and nuclear staining after sodium azide,[2]; cells exposed to 1% sodium azide for 30 minutes prior to incubation,neither cytoplasmic nor nuclear staining was observed
same,translocation in presence of free L-arginine,[2]; free L-arginine up to 10 mM added,Nor was translocation of bR7 inhibited
same,internalized biotin,[3]; 0.1 μM,internalized biotin was observed in the cytoplasm of all EC
same,internalized biotin,[3]; 10.0 μM for 30 minutes,internalized biotin was detected not only in the cytoplasm but also in the nucleus of virtually all exposed endothelial cells
same,speed or efficacy of translocation into vascular tissue at 4° C.,"[4]; 10.0 μM, 4° C.",no apparent reduction in the speed or efficacy
same,biotin signals after intraluminal instillation,"[4]; 10.0 μM, 30 minutes of intraluminal exposure","biotin signals were detected throughout the vessel, including the adventitial cells"
same,biotin signal in vascular cells,"[4]; carotid artery, 10.0 μM, 30 minutes","a distinct biotin signal was observed in virtually all intimal cells, medial cells, and adventitial cells"
same,biotin staining by day 5,"[4]; day 5 after exposure (10.0 μM), serum containing medium",No significant positive staining
"hepta-L-lysine [K7, reference compound]",NO production,"cytokine-stimulated VSMC; 100 μM, 30 minutes",did not increase the NO production
